Counter-ions that a name gives are not always drawn. Like-named read-outs stand apart in the source and are kept apart here.
Tests used:
T. colubriformis = assay: Activity in lambs by subcutaneous injection against 4th larval and adult stages; assay type: in vivo; conditions: 75 mg/kg subcutaneous injection (18% w/v aqueous solution)
Protocol: (§1) b. 8 Worm-free lambs were each infected with H. contortus (approximately 7,000) and T. colubriformis ((approximately 15,000) infective larvae. After 7 days, 2 lambs were treated by subcutaneous injection of an 18% w/v aqueous solution at 75 mg/kg animal body weight of the test compound against the 4th larval stages of the worms. 28 Days after infection, 2 lambs were similarly treated against the adult stages of the worms. 35 Days after infection all 8 lambs were killed for post-mortem worm counts and the burdens of each worm species in the 4 treated animals compared with those in the remaining 4 untreated animals.

H. contortus = assay: as above; assay type: in vivo; conditions: 75 mg/kg subcutaneous injection (18% w/v aqueous solution)
Protocol: as §1

[1] = tested on: Trichostrongylus colubriformis; assay: Activity against mature adult stages in lambs, oral treatment (Table III); assay type: in vivo; conditions: 120 h, 15 mg/kg oral, read-out: Mean percentage reduction in worm burdens, T.colubriformis
Protocol: (§2) ii. 20 Worm-free lambs were each infected with H. contortus (approximately 5,600), T. axei (approximately 9,300) and T. colubriformis (approximately 10,000) infective larvae. After 22 days, 16 lambs were treated orally with 15 mg/kg animal body weight of the 8 test compounds, i.e. 2 lambs per compound, against the mature adult stages of the worms. 27 Days after infection, all 20 lambs were killed for post-mortem worm counts and the burden of each worm species in the 16 treated animals compared with those in the remaining 4 untreated control animals.

Trichostrongylus axei = assay: as above; assay type: in vivo; conditions: 120 h, 15 mg/kg oral, read-out: Mean percentage reduction in worm burdens, T.axei
Protocol: as §2

Haemonchus contortus = assay: as above; assay type: in vivo; conditions: 120 h, 15 mg/kg oral, read-out: Mean percentage reduction in worm burdens, H.contortus
Protocol: as §2

[2] = tested on: Nippostrongylus brasiliensis; assay: Test 2: activity against roundworms in rats, treatment 24 hours after infection, worm counts 6 days after dosing; assay type: in vivo; conditions: Nippostrongylus brasiliensis, 144 h, rats, read-out: Percentage reduction in N.brasiliensis load
Protocol: Test 2 -- Rats were infected with 100 Nippostrongylus brasiliensis larvae each, by the subcutaneous route. After 24 hours the rats were randomised and allotted to groups of 5 animals each, ready for treatment. Doses of the test compound were then administered to each group by the oral, subcutaneous and intraperitoneal routes respectively, one group of 10 animals being left untreated as a control. All the rats were killed for post-mortem worm counts 6 days after dosing. The activities, expressed in terms of the percentage reductions in mean worm load of the treated groups or damage to the worms compared with the untreated control group, are given below in Table I.

[3] = tested on: Nippostrongylus brasiliensis eggs; assay: In vitro activity against roundworms (egg hatching and larvae); assay type: cell-based; conditions: 96 h, tested at 100, 10, 1 and 0.1 μg/ml, inhibited or delayed hatching of eggs, or killed, retarded growth or reduced activity of larvae during 4 days, read-out: M.I.C. (minimum inhibitory concentration)
Protocol: Compounds of formula I were tested at concentrations of 100 μg/ml, 10 μg/ml, 1 μg/ml and 0.1 μg/ml in small glass containers. If the compound was not soluble in water, a volatile organic medium, e.g. acetone, chloroform, ethanol or methanol was used. An amount of material appropriate for each final concentration was measured and placed in duplicate test containers and if an organic solvent was used it was allowed to evaporate completely. Nippostrongylus brasiliensis eggs were recovered by saturated saline centrifugal flotation from the faeces of rats heavily infected with third stage larvae six days previously. They were washed several times in water and suspended in water in a suitable concentration. From 25-50 eggs were placed in each container and the final volume was made up by the addition of a very dilute aqueous suspension of mouse faeces which served as the growth medium. The minimum inhibitory concentrations of each compound (M.I.C.), shown in the following Table V was the minimum concentration in μg/ml total liquid volume at which it inhibited or delayed hatching of eggs, or at which it killed, retarded growth or reduced activity of larvae during the 4 days after beginning the test.

Trichinella spiralis = assay: Activity against roundworms in mice; assay type: in vivo; conditions: 100 mg/kg subcutaneous at 2 hours and 24 hours post infection, killed 5 days after second dose
Protocol: Mice were infected with approximately 100 Trichinella spiralis larvae each, by the oral route. The mice were randomised and allotted to two groups of 4 animals each. Doses of 1-methoxycarbonyl-3-(2-dimethylaminoacetamidophenyl)thiourea hydrochloride were then administered to one group by the subcutaneous route at 2 hours post infection and again at 24 hours post infection, one group of 4 animals being left untreated as a control. The doses given to the mice were 100 mg/kg animal body weight. All the mice were killed for postmortem examination 5 days after the second dose. The activity, expressed in terms of the percentage reduction in mean worm load of the treated group compared with the control group, was 95%.

[4] = tested on: Nippostrongylus brasiliensis; assay: Test 1: activity against roundworms in rats, treatment 6 days after infection (patent infection), worm counts 48 hours after treatment; assay type: in vivo; conditions: Nippostrongylus brasiliensis, po, 48 h, Test 1, 1000 mg/kg oral, read-out: Percentage reduction in N.brasiliensis load
Protocol: Test 1 - Rats were infected with 100 Nippostrongylus brasiliensis larvae each, by the subcutaneous route. After 6 days, when the infection was patent, the rats were randomised and alloted to groups of 10 animals each, ready for treatment. One group was used for each dose level of the test compound and, in each experiment, one group was left untreated as a control. All the rats were killed for post-mortem worm counts 48 hours after treatment. The activity, expressed in terms of the percentage reduction in mean worm load of the treated group compared with the untreated group, is shown in Table I.

`COC(=O)NC(=S)Nc1ccccc1NC(=O)CN(C)C` [1-methoxycarbonyl-3-(2-dimethylaminoacetamidophenyl)thiourea hydrochloride] was tested, and the “Mean percentage reduction in worm burdens, T.colubriformis” value (T. colubriformis; 4th larval stage) was 99.9%, the “Mean percentage reduction in worm burdens, T.colubriformis” value (T. colubriformis; adult stage) was 99.7% and the “Mean percentage reduction in worm burdens, H.contortus” value (H. contortus; 4th larval stage) was 87.1%. The “Mean percentage reduction in worm burdens, H.contortus” value (H. contortus; adult stage) was 95.3%, the inhibition in vivo at 15 mg/kg [1] was 43.4% and the inhibition in vivo at 15 mg/kg (Trichostrongylus axei) was 78%. For the same molecule, the inhibition in vivo at 15 mg/kg (Haemonchus contortus) was 60%, the inhibition in vivo at 1000 mg/kg ([2]; Test 2, 1000 mg/kg oral) was 100% and the inhibition in vivo at 50 mg/kg ([2]; ip, Test 2, 50 mg/kg intraperitoneal) was 89%. The inhibition in vivo at 100 mg/kg ([2]; ip, Test 2, 100 mg/kg intraperitoneal) was 99%, the inhibition in vivo at 250 mg/kg ([2]; ip, Test 2, 250 mg/kg intraperitoneal) was 96% and the inhibition in vivo at 60 mg/kg ([2]; sc, Test 2, 60 mg/kg subcutaneous) was 89.8%. For the same molecule, the inhibition in vivo at 250 mg/kg ([2]; sc, Test 2, 250 mg/kg subcutaneous) was 99.5%, the inhibition in vivo at 500 mg/kg ([2]; sc, Test 2, 500 mg/kg subcutaneous) was 99.5% and the MIC [3] was 1 µg/mL. The “percentage reduction in mean worm load” value (Trichinella spiralis) was 95% and the inhibition in vivo at 1000 mg/kg [4] was 91%.

— patent publication US4005217A, “Treatment of helminth infections with substituted phenyl-thiourea derivatives” (May & Baker Limited, priority 1970, dated 1977)
